# Measured values taken from patent US9765061B2, “Trail enhancers for the selective killing of cancer cells” (The Scripps Research Institute, priority 2013, dated 2017).
# Columns and labels:
# sXBP1 (UPR) [1] = experiment: sXBP1 generation in mouse lung after administration; assay type: in vivo; settings: administration into mouse lung, FIG. 1F
# From the text: (§1) FIG. 1: C12 induces the UPR in mammalian cells. (A and B). Comparison of the macrophage responsiveness to P. aeruginosa (P.a.), S. typhimurium (S.t), and S. aureus (S.a.). RT-PCR assay of XBP1 (A) and Western blot analysis (B) of p38, its phosphorylated form (p-p38) as well as phosphorylated forms of PERK (p-PERK) and eIF2α (p-eIF2α) in cell extracts after treatment with bacteria are shown. (C) Macrophages were stimulated with P. aeruginosa wild type (wt) or lasI mutant (ΔlasI), and cell extracts (total RNA or total protein) were prepared and analyzed as in (A and B). (D and E) RT-PCR assay of XBP1 or actin in total RNA prepared from macrophages after treatment with compound (C12), i.e., the (S)-enantiomer, or with the (R)-enantiomer (C12R), or the hydrolysis product (C12h) are shown. (F) Total RNA was prepared from lung of mice after inoculation of vehicle (-) or (C12) and analyzed in (D). (G) Chemical structures of compounds (C12), (C12R) and (C12h). Compound (C12) is the (S)-enaniiomer of the compound of formula: […]
# Importantly, the similar requirements in the structural integrity of the lactone ring motif were also evident in response to other natural stereoisomer of the AHL family (Table 1). […]
# sXBP1 (UPR) [2] = experiment: RT-PCR assay of spliced XBP1 mRNA (sXBP1) in macrophages; assay type: cell-based, mouse; settings: FIG. 1D and 1E
# From the text: as §1, with “(D and E) RT-PCR assay of XBP1 or actin in total RNA prepared from macrophages after treatment with compound (C12), i.e., the (S)-enantiomer, or with the (R)-enantiomer (C12R), or the hydrolysis product (C12h) are shown.” left out, “(D).” for “(D). (G) Chemical structures of compounds (C12), (C12R) and (C12h). Compound (C12) is the (S)-enaniiomer of the compound of formula:”
# Among key biochemical signatures of the multicomponent ER stress pathway, known as the unfolded protein response (UPR), are the phosphorylation of the α-subunit of eukaryotic translation initiation factor-2 (eIF2α) and activation of the transcription factor XBP1/Hac1 (X-box binding protein-1 in metazoans and homologous to ATF/CREB in yeast, respectively) ^11. […] To initiate our studies, we exposed bone marrow-derived macrophages (BMDM) to these bacteria, and macrophage responsiveness was analyzed for biochemical markers of the UPR and the phosphorylation of the mitogen-activated protein kinase p38, as a common marker of TLR pathways. […]
# [3] = test system: normal human bronchial epithelial cells (NHBE); experiment: PARP cleavage in normal human bronchial epithelial cells; assay type: cell-based; settings: FIG. 3D
# Experimental: FIG. 3: Sensitivity of cancerous and non-cancerous cells to apoptosis induced by TNF, C12 or a combination of C12 and TNF. Cells were incubated with TNF, (C12) or a combination of TNF and (C12) as indicated, and the cleavage of PARP (an apoptotic marker) was determined by Western blot. (A and B) Breast cancer MCF-7 cells transfected with control vector (Vector) and vector expressing Bcl-2 or CLARP. (C) HeLa cell line. (D) Normal human bronchial epithelial cells (NHBE).
# Similar experiments were conducted by using normal human bronchial epithelial cells and HeLa cell line as an example of transformed cells. We observed that both HeLa and normal cells were resistant to pro-apoptotic effects of TNF (FIG. 3C and 3D). […] In addition, two stimuli—C12 and TNF—work synergistically against cancerous cells, although normal cells stay intact.
# Cancer and normal cell culture. Lung cancer cell line A549 and colon cancer cell line HT29 were purchased from ATCC. Breast cancer cell line MDA-MB-468 was received from J. C. Reed (The Burnham Institute, La Jolla, Calif.). […]
# Antibodies and Western blot analysis. […] Cellular extracts were prepared and analyzed by Western blot assay as previously described.^E3
smiles,measurement,setting,value
"CCCCCCCCCC(=O)CC(=O)N[C@H]1CCOC1=O [Compound 1, N-(3-oxo-dodecanoyl) homoserine lactone]",generation of sXBP1 in lung,sXBP1 (UPR) [1],resulted in the generation of sXBP1
same,induction of sXBP1 / activation of the UPR,sXBP1 (UPR) [2],time- and dose-dependent induction of sXBP1
same,"apoptosis (PARP cleavage), compound alone and in combination with TNF",[3],showed resistance
